# According to paper PMC12356538, “Targeting the SARS-CoV‑2 RNA Translation Initiation Element SL1 by Molecules of Low Molecular Weight” (Journal of the American Chemical Society, 2025):
# Read-outs that look alike come from different tables or passages of the source.
# How the values were obtained:
# [1] = system: SARS-CoV-2 SL1 RNA (SL1 wt); assay type: binding; settings: for FBS binding to SL1, in words: ligand-detected NMR; for FBS binding to SL1, in words / Rank / CSP values relative to A.2: SL1 wt; for wLOGSY factor / T2 reduction [%] / CSP [Hz]: 10 μM SL1 wt, 200 μM ligand; for wLOGSY factor / T2 reduction [%]: pH 6.2; for T2 reduction [%]: CPMG 100 vs 5 ms; for Rank: FBS ranking from summed ranks of CSP, wLOGSY and T2 results; for CSP [Hz]: ligand 1H CSP, [RNA]:[ligand] 1:20, pH 6.2; for CSP values relative to A.2: ligand CSP
# [2] = molecular target: SL1 wt RNA; assay: NMR-based KD estimation, ligand-detected 1D-1H titration; assay type: binding, SARS-CoV-2; settings: Suppl. Table 7; for Kd: read-out: KDest
# [3] = system: SL1 Δbulge RNA; assay type: binding, SARS-CoV-2
# [4] = ligand constant at 100, SL1 wt RNA concentration 0-250
# [5] = ligand constant at 100, SL1 wt RNA concentration 0-200
SMILES,"FBS binding to SL1, in words [1]","FBS result (CSP, wLOGSY, T2 reduction) in words [3]",wLOGSY factor [1],T2 reduction [%] [1],Rank [1],CSP [Hz] [1],other results
CC(=O)Nc1nc2ccccc2s1 [A.6],only minor effects,–,–,–,–,–,–
CC(C)(C)C(=O)Nc1nc2ccccc2s1 [A.7],only minor effects,–,–,–,–,–,–
CC(C)(C)C(=O)Nc1nc2ccc(Br)cc2s1 [A.8],only minor effects,no effects,–,–,–,–,"Kd [2, 4]: 254 µM"
CNC(=N)Nc1nc2ccc(O)cc2s1 [A.9],–,no effects,0.66,72.21%,39,3.67 Hz,"Kd [2, 4]: 436 µM"
CN(C)CC(=O)Nc1nc2ccc(O)cc2s1 [A.12],among the weakest binders,–,0.15,69.00%,40,10.02 Hz,–
COc1cc(OC)c2nc(NC(=O)CN(C)C)sc2c1 [A.15],–,–,2.66,36.00%,16,31.92 Hz,"Kd [2, 5]: 108 µM; CSP [Hz] [3]: 9.18 Hz; Rank [3]: 2; T2 reduction [%] [3]: 84.62%; wLOGSY factor [3]: 0.47; CSP values relative to A.2 [1]: 2–3 times"
CN(C)CC(=O)Nc1nc2ccc(Br)cc2s1 [A.16],–,no effects,0.74,83.00%,17,27.60 Hz,CSP values relative to A.2 [1]: 2–3 times
COc1ccc2nc(NC(=O)CN3CCN(C)CC3)sc2c1 [A.18],positive effect on SL1 binding,no effects,0.80,91.00%,12,22.14 Hz,–
CSc1ccc2nc(NC(=O)CN(C)C)sc2c1 [A.19],–,no effects,0.46,87.00%,18,25.08 Hz,–
COc1ccc2nc(NC(=O)CN(C)C)[nH]c2c1 [A.20],higher score than that of A.2,no effects,0.62,87.00%,15,25.08 Hz,–
COc1ccc(-c2nnc(NC(=O)CN(C)C)s2)cc1 [A.21],–,–,1.43,95.00%,13,12.57 Hz,–
COc1ccc(-c2nnc(N)s2)cc1 [A.22],no hit,–,–,–,–,–,–
COc1ccc(-c2nnc(N)s2)cc1OC [A.23],no hit,–,–,–,–,–,–
CN(C)CC(=O)Nc1nc2ccc(N)cc2s1 [A.24],among the weakest binders,no effects,0.49,69.42%,35,11.40 Hz,–
COc1cc(OC)c2nc(NC(=O)CN(C)Cc3ccccc3)sc2c1 [A.25],–,no effects,–,–,–,–,–
CN(C)CC(=O)Nc1nc2ccc(C(F)(F)F)cc2s1 [A.27],–,no effects,–,–,–,–,–
CN(C)CC(=O)Nc1nc2ccc(OC(F)(F)F)cc2s1 [A.28],–,no effects,1.01,85.67%,21,13.56 Hz,–
COCCN(C)CC(=O)Nc1nc2ccc(OC)cc2s1 [A.30],–,–,0.14,77.69%,35,10.44 Hz,–
CN(C)CC(=O)Nc1nc2ccc(S(C)(=O)=O)cc2s1 [A.32],–,no effects,0.22,46.43%,41,6.54 Hz,–
COc1ccc2nc(NC(=O)CN(C)Cc3cncnc3)sc2c1 [A.33],detrimental to binding to SL1,–,–,–,–,–,–

SMILES,"FBS binding to SL1, in words [1]","FBS result (CSP, wLOGSY, T2 reduction) in words [3]",wLOGSY factor [1],T2 reduction [%] [1],Rank [1],CSP [Hz] [1],other results
COc1ccc2nc(N(C)C(=O)CN(C)C)sc2c1 [A.34],slightly higher affinity,–,2.15,81.54%,13,19.56 Hz,–
COc1ccc2nc(NC(=O)CN(C)C)oc2c1 [A.35],did not show any improvement,no effects,–,–,–,–,–
COc1ccc2nc(NC(=O)CN3CCC[C@@H](N)C3)sc2c1 [A.37],positive effect on SL1 binding,no effects,1.01,100.00%,3,24.72 Hz,"Kd [2, 5]: 171 µM"
COc1ccc2nc(NC(=O)CN(C)C)sc2n1 [A.38],did not show any improvement,no effects,1.22,73.62%,23,16.14 Hz,–
COc1ccc2nc(NC(=O)CN3CCN(C)CC3)[nH]c2c1 [A.40],reduced activity,no effects,0.68,41.23%,37,9.48 Hz,–
CN(C)CC(=O)Nc1nnc(-c2cc([N+](=O)[O-])cc([N+](=O)[O-])c2)s1 [A.41],–,no effects,0.59,93.02%,21,13.68 Hz,–
CN(C)CC(=O)Nc1nnc(-c2ccc([N+](=O)[O-])cc2)s1 [A.42],–,no effects,0.90,86.63%,24,12.36 Hz,–
CN(C)CC(=O)Nc1nnc(-c2cc(F)c(Cl)c([N+](=O)[O-])c2Cl)s1 [A.43],–,no effects,0.00,91.98%,31,8.40 Hz,–
COc1ccc2nc(NC(=O)CN(C)C3CC(C)(C)NC(C)(C)C3)sc2c1 [A.44],–,no effects,1.19,76.80%,27,12.99 Hz,–
COc1ccc2nc(NC(=O)CN3CCNCC3)sc2c1 [A.45],positive effect on SL1 binding,–,1.54,86.71%,7,24.81 Hz,"Kd [2, 5]: 162 µM; CSP [Hz] [3]: 7.08 Hz; Rank [3]: 7; T2 reduction [%] [3]: 60.81%; wLOGSY factor [3]: 0.00"
CN(C)CC(=O)Nc1nc2cnc(Cl)nc2s1 [A.46],did not show any improvement,no effects,–,–,–,–,–
COc1ncc2nc(NC(=O)CN(C)C)sc2n1 [A.47],did not show any improvement,no effects,–,–,–,–,–
COc1ccc2nc(NC(=O)CN3CCC[C@H](NCCN(C)c4cccc(O)c4)C3)sc2c1 [A.48],–,–,0.00,74.30%,32,17.28 Hz,"Kd [2, 5]: 304 µM; CSP [Hz] [3]: 2.16 Hz; Rank [3]: 9; T2 reduction [%] [3]: 0.59%; wLOGSY factor [3]: 10.82"
CCN(CCN[C@H]1CCCN(CC(=O)Nc2nc3ccc(OC)cc3s2)C1)c1cccc(O)c1 [A.49],–,no effects,0.00,72.85%,34,15.15 Hz,"Kd [2, 5]: 530 µM"
COc1ccc2nc(NC(=O)CN3CCC[C@@H](NCCN(C)c4cccc(O)c4)C3)sc2c1 [A.50],–,no effects,0.00,72.85%,33,15.17 Hz,"KDest [2, 5]: ambiguous"
CCN(CCN[C@@H]1CCCN(CC(=O)Nc2nc3ccc(OC)cc3s2)C1)c1cccc(O)c1 [A.51],–,–,0.00,88.75%,25,19.56 Hz,"Kd [2, 5]: 740 µM; CSP [Hz] [3]: 4.44 Hz; Rank [3]: 10; T2 reduction [%] [3]: 42.57%; wLOGSY factor [3]: 0.00"
COc1ccc2nc(NC(=O)CN3CCC[C@H](NCc4cccc(O)c4)C3)sc2c1 [A.52],–,no effects,0.00,83.78%,29,20.01 Hz,–
COc1ccc2nc(NC(=O)CN3CCC[C@@H](NCc4cccc(O)c4)C3)sc2c1 [A.53],–,no effects,0.00,85.86%,28,21.03 Hz,–
COc1cc(OC)c2nc(NC(=O)CN3CCC[C@H](N)C3)sc2c1 [A.54],–,–,0.00,100.00%,4,34.62 Hz,"Kd [2, 5]: 109 µM; CSP [Hz] [3]: 3.60 Hz; Rank [3]: 5; T2 reduction [%] [3]: 88.68%; wLOGSY factor [3]: 0.00"
COc1cc(OC)c2nc(NC(=O)CN3CCC[C@@H](N)C3)sc2c1 [A.55],–,no effects,0.00,100.00%,5,34.05 Hz,"Kd [2, 5]: 81.1 µM"
